Some test systems named below: OVCAR-3 ovarian; KM12 colon; A549 NSCLC; SK-MEL-28 melanoma; PC-3 prostate; NCI-H460 lung; SF-295 CNS; HOP-92 NSCLC; HT29 colon; LOX IMVI melanoma.
Holding throughout (assay): inhibition of tumour cell growth, NCI panel, 48 h

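In this assay, cells in 96-well plates receive the compound at five concentrations for 48 hours. Endpoints are linearly interpolated between the surrounding concentrations. The concentration for 50% growth inhibition is given as GI50. TGI marks complete inhibition of growth.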

On to `CCN(CC)CC(C)Nc1ccc([N+](=O)[O-])c2sc3ccccc3c(=O)c12` (stereo not given), for which the GI50 in the assay with OVCAR-3 ovarian is 2.88 µM; with KM12 colon, 2.14 µM; in the assay on A549 NSCLC it was 0.938 µM; in the assay with SK-MEL-28 melanoma it was 1.95 µM; with PC-3 prostate, 2.52 µM; in the assay with NCI-H460 lung it was 0.401 µM. Further, the GI50 was 1.4 µM with SF-295 CNS, 1.39 µM in the assay on HOP-92 NSCLC, 2.58 µM in the assay on HT29 colon and 1.02 µM in the assay on LOX IMVI melanoma. The TGI was 11.5 µM in the assay on OVCAR-3 ovarian; 13.5 µM in the assay on KM12 colon; 5.04 µM with A549 NSCLC; 4.56 µM with SK-MEL-28 melanoma; > 100 µM in the assay on PC-3 prostate; 2.14 µM with NCI-H460 lung. Also, the TGI in the assay on SF-295 CNS is 9.95 µM; in the assay with HT29 colon, > 33.2 µM; with LOX IMVI melanoma, 2.39 µM.

For `C[C@]12CC[C@@H]3c4ccc(OP(=O)(O)O)cc4CC[C@H]3[C@@H]1CCC2=O`, the TGI in the assay with OVCAR-3 ovarian, in the assay on KM12 colon, with A549 NSCLC, in the assay with SK-MEL-28 melanoma, with PC-3 prostate and in the assay with NCI-H460 lung was > 100 µM throughout. Also, the TGI in the assay on SF-295 CNS, in the assay with HOP-92 NSCLC, in the assay with HT29 colon and in the assay on LOX IMVI melanoma was > 100 µM throughout.

With `CC[C@H]1C=CCC[C@@]2(C[C@@H]3CC[C@@H]4[C@H](C(=O)OCCCCCCCCCCCCCCCC(=O)O)[C@]5(CCC[C@@H](C)O5)NC(=[N+]34)N2)O1`, the TGI worked out at 5.83 µM with OVCAR-3 ovarian; 5.76 µM in the assay on KM12 colon; 5.87 µM in the assay with A549 NSCLC; 5.3 µM with SK-MEL-28 melanoma; 1.9 µM in the assay on PC-3 prostate; 1.12 µM in the assay on NCI-H460 lung. For the same compound, the TGI with SF-295 CNS was 2.09 µM; in the assay on HOP-92 NSCLC it was 0.615 µM; in the assay on HT29 colon, 5.61 µM; with LOX IMVI melanoma, 0.284 µM.

Consider `O=S(=O)(O)c1ccc2cccc(N=Nc3c(O)ccc4ccccc34)c2c1`, for which the TGI in the assay with OVCAR-3 ovarian, in the assay on KM12 colon, in the assay on A549 NSCLC, in the assay on PC-3 prostate, in the assay on NCI-H460 lung and in the assay with SF-295 CNS was > 100 µM in each case. Besides, the TGI with HOP-92 NSCLC was > 100 µM.

Regarding `CC1SC(c2ccccc2)N(CCc2cccs2)C1=O` (stereo not given), the GI50 in the assay on OVCAR-3 ovarian was 3.03 µM; in the assay on KM12 colon, 3.44 µM; with A549 NSCLC, 4.16 µM; with SK-MEL-28 melanoma, 4.96 µM; in the assay with PC-3 prostate, 2.68 µM; in the assay on NCI-H460 lung, 3.55 µM. Besides, the GI50 was 3.35 µM with SF-295 CNS, 1.27 µM in the assay on HOP-92 NSCLC, 4.03 µM with HT29 colon and 2.9 µM in the assay on LOX IMVI melanoma. In addition, the TGI in the assay on OVCAR-3 ovarian was found to be 13.3 µM; in the assay on KM12 colon, 13.3 µM; in the assay with A549 NSCLC it was 15.1 µM; in the assay with SK-MEL-28 melanoma it was 17.9 µM; in the assay with PC-3 prostate, 15.7 µM; with NCI-H460 lung, 14.7 µM. In addition, the TGI with SF-295 CNS was 15.7 µM; in the assay with HOP-92 NSCLC it was 5.59 µM; with HT29 colon, 15.2 µM; in the assay with LOX IMVI melanoma, 13.7 µM.

As to `COC(=O)C1=CC2CCCC1(O)C(C(C)=O)C2` (stereo not given), the TGI in the assay on OVCAR-3 ovarian, with KM12 colon, with A549 NSCLC, with SK-MEL-28 melanoma, with PC-3 prostate and in the assay with NCI-H460 lung was > 100 µM throughout. The TGI in the assay on SF-295 CNS was > 100 µM; with HOP-92 NSCLC, > 100 µM; with HT29 colon, > 100 µM; in the assay with LOX IMVI melanoma, 34.3 µM.

Turning to `CCS(=O)(=O)Nc1ccc(Nc2c3ccccc3nc3ccccc23)c(OC)c1`, the TGI in the assay with OVCAR-3 ovarian is 6.05 µM; in the assay on KM12 colon it was 6.72 µM; in the assay on A549 NSCLC it was 1.7 µM; in the assay on SK-MEL-28 melanoma it was 15.4 µM; in the assay with NCI-H460 lung, 1.19 µM; in the assay on SF-295 CNS, 3.34 µM. Also, the results for the TGI in the assay with HOP-92 NSCLC, in the assay on HT29 colon and in the assay with LOX IMVI melanoma were 5.35 µM, 6.56 µM and 4.26 µM, respectively.

On to `O=C(N/N=C(/c1ccccc1)C(F)(F)F)c1ccncc1`, for which the TGI in the assay on OVCAR-3 ovarian, in the assay with KM12 colon, with SK-MEL-28 melanoma, in the assay on PC-3 prostate, in the assay with NCI-H460 lung and in the assay on SF-295 CNS was > 100 µM each time. Also, the TGI in the assay with HOP-92 NSCLC and with HT29 colon was > 100 µM throughout.

Take `ONc1ncnc2nc[nH]c12`: the TGI with OVCAR-3 ovarian, with KM12 colon, in the assay on A549 NSCLC, with SK-MEL-28 melanoma, in the assay on NCI-H460 lung and in the assay on SF-295 CNS was > 100 µM each time. Also, the TGI in the assay with HOP-92 NSCLC and in the assay with HT29 colon was > 100 µM throughout.

Regarding `CCOC(=O)CSc1nc(N)c2c(-c3ccc(OC)c(OC)c3)c3c(nc2n1)CCCC3`, the TGI with OVCAR-3 ovarian, in the assay on KM12 colon, with A549 NSCLC, in the assay with SK-MEL-28 melanoma, in the assay on PC-3 prostate and in the assay on NCI-H460 lung was > 100 µM each time. For the same compound, the TGI with SF-295 CNS, in the assay with HT29 colon and with LOX IMVI melanoma was > 100 µM throughout.

As to `CCOC(=O)c1nc2ccc(Cl)cc2c2c1Cc1ccccc1-2`, the TGI in the assay with OVCAR-3 ovarian, in the assay with KM12 colon, in the assay with A549 NSCLC, in the assay on SK-MEL-28 melanoma, in the assay on SF-295 CNS and with LOX IMVI melanoma was > 100 µM throughout.

Consider `CCOC(=O)N(Cc1cccs1)c1cc(OC)c(OC)c(OC)c1`, for which the TGI with OVCAR-3 ovarian was > 100 µM; with KM12 colon it was > 100 µM; with A549 NSCLC it was > 100 µM; with SK-MEL-28 melanoma it was > 100 µM; in the assay with PC-3 prostate, 98.9 µM; in the assay on NCI-H460 lung it was > 100 µM. Moreover, the TGI with SF-295 CNS, with HT29 colon and in the assay with LOX IMVI melanoma was > 100 µM each time.

On to `Cn1c(=S)[nH]c2sc3c(c2c1=O)CCSC3`, for which the TGI in the assay with OVCAR-3 ovarian is 61 µM; with KM12 colon, > 100 µM; in the assay with A549 NSCLC, > 100 µM; with PC-3 prostate it was > 100 µM; in the assay on NCI-H460 lung it was > 100 µM; in the assay on SF-295 CNS it was 97.3 µM. Moreover, the TGI in the assay with HOP-92 NSCLC, in the assay with HT29 colon and in the assay with LOX IMVI melanoma was > 100 µM throughout.

With `N=C(N)c1ccc(-c2ccc(-c3cc(Cl)cc(Cl)c3)o2)nc1`, the GI50 in the assay with OVCAR-3 ovarian is 1.88 µM; in the assay with KM12 colon, 1.85 µM; in the assay on SK-MEL-28 melanoma, 1.8 µM; with PC-3 prostate, 1.74 µM; in the assay with NCI-H460 lung it was 1.9 µM; in the assay with SF-295 CNS, 1.92 µM. Moreover, the GI50 is 1.56 µM in the assay with HOP-92 NSCLC, 1.76 µM in the assay on HT29 colon and 1.77 µM in the assay on LOX IMVI melanoma. Moreover, the TGI in the assay with OVCAR-3 ovarian came to 3.39 µM; with KM12 colon, 3.44 µM; with SK-MEL-28 melanoma, 3.59 µM; in the assay with PC-3 prostate it was 3.25 µM; in the assay with NCI-H460 lung it was 3.63 µM; with SF-295 CNS, 3.63 µM. Moreover, the TGI came out at 3.14 µM with HOP-92 NSCLC, 3.69 µM in the assay on HT29 colon and 3.41 µM with LOX IMVI melanoma.

Turning to `O=C(CCCCCCC(=O)Nc1ccc(N(CCCl)CCCl)cc1)NO`, the GI50 was 1.92 µM with OVCAR-3 ovarian; 6.58 µM in the assay on KM12 colon; 3.35 µM in the assay on SK-MEL-28 melanoma; 3.7 µM with PC-3 prostate; 0.598 µM in the assay with NCI-H460 lung; 1.91 µM in the assay on SF-295 CNS. Moreover, the GI50 was 1.19 µM in the assay with HOP-92 NSCLC, 1.56 µM in the assay on HT29 colon and 1.34 µM in the assay with LOX IMVI melanoma. Also, the TGI was 6.66 µM in the assay with OVCAR-3 ovarian; 21.7 µM in the assay on KM12 colon; 16.3 µM with SK-MEL-28 melanoma; > 100 µM in the assay with PC-3 prostate; 12.9 µM in the assay with NCI-H460 lung; 10.2 µM in the assay with SF-295 CNS. The TGI in the assay on HOP-92 NSCLC stood at 5.47 µM; in the assay on HT29 colon, 12.7 µM; in the assay with LOX IMVI melanoma, 3.78 µM.

For the compound `CNC(=O)OC(C)CN1c2ccccc2Sc2ccc(Cl)cc21` (stereo not given), the TGI in the assay with OVCAR-3 ovarian, with A549 NSCLC, in the assay with SK-MEL-28 melanoma, with PC-3 prostate, with NCI-H460 lung and in the assay with SF-295 CNS was > 10 µM each time. For the same compound, the TGI in the assay with HT29 colon and in the assay with LOX IMVI melanoma was > 10 µM throughout.

For the compound `COc1cc(/C=C/C(=O)c2ccc(NS(=O)(=O)c3cc([N+](=O)[O-])ccc3C)cc2)cc(OC)c1OC`, the TGI with OVCAR-3 ovarian worked out at 11.5 µM; in the assay on KM12 colon, 8.02 µM; in the assay on A549 NSCLC, 18.6 µM; in the assay on SK-MEL-28 melanoma it was 25 µM; with PC-3 prostate, 19.5 µM; with SF-295 CNS it was 16.4 µM. Besides, the TGI worked out at 11.5 µM with HOP-92 NSCLC, 14.4 µM with HT29 colon and 9.36 µM with LOX IMVI melanoma.

Consider `CN1CC[C@@]2(c3cccc(O)c3)CC(=O)/C(=C/c3ccccc3)[C@H]1C2`, for which the TGI in the assay on KM12 colon is > 30.4 µM; in the assay on A549 NSCLC it was 36.9 µM; with SK-MEL-28 melanoma, 29 µM; in the assay with PC-3 prostate, 14.4 µM; in the assay with NCI-H460 lung, 18.7 µM; with SF-295 CNS, 23.8 µM. The figures for the TGI in the assay with HOP-92 NSCLC, in the assay with HT29 colon and in the assay with LOX IMVI melanoma were 31 µM, 13.5 µM and 3.46 µM, respectively.

Regarding `Cn1c(=O)c2c(nc(-n3nc(-c4ccc(Cl)cc4)cc3N)n2C)n(C)c1=O`, the TGI in the assay on OVCAR-3 ovarian, in the assay with KM12 colon, with A549 NSCLC, in the assay on SK-MEL-28 melanoma, with PC-3 prostate and in the assay with NCI-H460 lung was > 100 µM throughout. The TGI with SF-295 CNS, in the assay with HOP-92 NSCLC and in the assay with HT29 colon was > 100 µM in each case.

The values are drawn from PubChem BioAssay (NCI).
